{
  "source": "patent US20070243222A1",
  "about": "“FUNGICIDAL FORMULATION AND METHOD OF USE” (priority 2006, published 2007)",
  "key": {"[1]": {"tested_on": "onychomycosis", "settings": "topical nail lacquer once daily, mild to moderate onychomycosis; combined results of two randomized, controlled trials; cited from earlier work"}, "[2]": {"tested_on": "onychomycosis", "settings": "standard oral treatment; survey Arch Dermatol 134(12):1551-1554, 1998; cited from earlier work"}, "[3]": {"tested_on": "Trichophyton rubrum", "assay": "inhibition of propagation of Trichophyton rubrum", "type": "cell-based", "settings": "acting alone or in combination", "description": "An additional iron chelating agent, useful in the present invention, is an iron-chelating agent consisting of ciclopirox in conjunction with a light-blocking agent. Particularly, preferred iron chelating agents useful in the present invention are zinc pyrithione and Chelex-100. Pyrithione is 2-pyridinethiol-1-oxide and is a “bidentate ligand” that has the capacity to complex with metals other than zinc, such as iron. Chelex-100 is a styrene divinylbenzene copolymer containing paired iminodiacetate ions, which act as chelating groups for binding polyvalent metal ions."}},
  "data": [
    {"molecule": "Cc1cc(C2CCCCC2)n(O)c(=O)c1", "note": "[ciclopirox]", "values": [
      {"measurement": "complete resolution, share of treated patients", "setting": "[1]", "result": "approximately 7%"}
    ]},
    {"molecule": "CN(C/C=C/C#CC(C)(C)C)Cc1cccc2ccccc12", "note": "[terbinafine]", "values": [
      {"measurement": "disease-free nails, share of cases", "setting": "[2]", "result": "35-50%"}
    ]},
    {"molecule": "zinc pyrithione", "values": [
      {"measurement": "inhibitory effect on the propagation of Trichophyton rubrum", "setting": "[3]", "result": "potent inhibitory effect"}
    ]}
  ]
}
